Reference: patent publication US20250074943A1, “DLL3 BINDING PEPTIDES AND USES THEREOF” (AMGEN INC., priority 2021, published 2025)
Numbered stars: 1 amine (or outer) side, 2 acyl side, 3 side chain; on linkers, the order of the positions; unused ones are H or OH. Bridge positions count the residues as written; N and C are the ends. Square brackets hold non-standard residues; d marks the D form. Ends that are not written are not given here. Peptide text beside a SMILES is read from it. * marks the point of attachment. X6 = CCOCCOCCOCCOCc1cn(CCCC[C@@H]2CC(=O)C(CC(=O)NCCCOCCOCCOCCCN*)NC2=O)nn1; X11 = NCCCC[C@H](NC(=O)CCC(=O)NCCCOCCOCCOCCCN*)C(N)=O; X4 = CC(C(=O)CN[*:1])[C@@H](C(=O)[*:2])[C@H](C)O; X5 = O=C([C@@H](CC1=CCc2ccccc21)N[*:1])[*:2]; Isobutyryl = CC(C)C(=O)*

Assays:
[1] = biological target: T1, native huDLL3 on the surface of cells (CHO cells) (Homo sapiens, UniProt Q9NYJ7); test: Flow cytometry competition with AF647-labelled peptide; format: cell-based; conditions: for efficiency in competing the binding of the AF647-labelled PepSP1146: compared with monomer PepSP1146
T1 construct: expressed in transfected cells; host or cells: CHO (CHO-huDLL3)
T1 sequence (Q9NYJ7 27-618): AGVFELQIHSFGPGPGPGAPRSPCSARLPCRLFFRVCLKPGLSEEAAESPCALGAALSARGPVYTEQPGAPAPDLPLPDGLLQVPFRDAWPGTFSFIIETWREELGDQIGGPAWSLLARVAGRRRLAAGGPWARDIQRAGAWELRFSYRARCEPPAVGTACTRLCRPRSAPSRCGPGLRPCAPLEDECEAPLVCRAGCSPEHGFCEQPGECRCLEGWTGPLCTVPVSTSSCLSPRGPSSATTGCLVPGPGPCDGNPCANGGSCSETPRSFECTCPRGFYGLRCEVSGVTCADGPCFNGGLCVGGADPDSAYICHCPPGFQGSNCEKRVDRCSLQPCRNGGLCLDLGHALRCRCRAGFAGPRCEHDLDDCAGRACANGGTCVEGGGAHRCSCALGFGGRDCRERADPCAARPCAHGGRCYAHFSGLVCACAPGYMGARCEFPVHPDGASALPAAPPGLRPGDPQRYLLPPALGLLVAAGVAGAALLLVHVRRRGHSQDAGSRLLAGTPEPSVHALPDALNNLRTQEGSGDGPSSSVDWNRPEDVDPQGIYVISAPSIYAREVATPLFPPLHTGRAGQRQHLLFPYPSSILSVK
Procedure: HEK293-huDLL3, CHO-huDLL3 and the corresponding parental cell lines were detached with EDTA 2.5 mM and re-suspended at 1.8×10^6 cells/ml in FACS buffer (1×PBS, 2% FBS), distributed at 500 μl per testing tube and pelleted 5 min at 1300 rpm in a Heraeus Multifuge […] centrifuge.

[2] = biological target: T2, recombinant DLL3 ectodomain (rhDLL3-Fc) (Homo sapiens, UniProt Q9NYJ7); test: Binding kinetic assay using Bio-layer interferometry (BLI)
T2 construct: The recombinant DLL3 ectodomain (rhDLL3-Fc) was biotinylated; Fc
T2 sequence (Q9NYJ7 27-492 limits assumed): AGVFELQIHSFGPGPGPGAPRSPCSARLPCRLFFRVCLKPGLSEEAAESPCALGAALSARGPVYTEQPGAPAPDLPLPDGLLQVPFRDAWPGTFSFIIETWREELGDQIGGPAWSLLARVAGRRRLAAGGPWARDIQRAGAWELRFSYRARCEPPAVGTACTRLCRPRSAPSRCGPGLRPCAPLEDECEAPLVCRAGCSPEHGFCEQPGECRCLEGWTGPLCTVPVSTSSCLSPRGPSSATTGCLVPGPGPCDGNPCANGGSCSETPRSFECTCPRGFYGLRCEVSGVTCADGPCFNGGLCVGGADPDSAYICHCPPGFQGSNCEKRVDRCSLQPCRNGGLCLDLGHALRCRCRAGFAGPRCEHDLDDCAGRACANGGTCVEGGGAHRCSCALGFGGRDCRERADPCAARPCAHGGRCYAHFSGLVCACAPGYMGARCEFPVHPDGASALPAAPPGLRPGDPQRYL

[3] = biological target: T3, rhDLL3-Fc (Homo sapiens, UniProt Q9NYJ7); test: SPR binding / off-rate screening (Biacore T200); conditions: Table 7, curve fitting of SPR sensorgrams; for koff: read-out: koff; for kon: read-out: kon
T3 construct: The recombinant DLL3 ectodomain (rhDLL3-Fc) was biotinylated; Fc
T3 sequence (Q9NYJ7 27-492 limits assumed): T2 sequence (Q9NYJ7 27-492 limits assumed)
Procedure: […] The recombinant DLL3 ectodomain (rhDLL3-Fc) was biotinylated using EZ-Link Sulfo-NHS-LC-LC-Biotin Kit according to the manufacturer's protocol (Pierce by Thermo Fisher Scientific). The recombinant protein was incubated with an excess of NHS-LC-LC Biotin ester, in a molar ratio of 1:3 (protein: biotin), at 25° C. for 90 min. The un-reacted biotin ester was removed by subsequent buffer exchange on 0.5 ml Zeba spin desalting columns 7K MWCO (Pierce by Thermo Fisher Scientific).
The off-rate screening of the peptides was done using a Biacore T200 instrument (Cytiva, Sweden). […] Sensorgrams were analyzed by Biacore T200 Evaluation Software 3.0 (Cytiva, Sweden): specific binding was obtained by subtracting unspecific binding to naked biosensors and a zero analyte concentration made of binding assay buffer (double referencing). […]

[4] = biological target: T4, DLL3 (Homo sapiens, UniProt Q9NYJ7); test: Binding of peptides with linkers and/or fluorescent agent to DLL3 (BLI, SPR; Table 6)
T4 construct: The recombinant DLL3 ectodomain (rhDLL3-Fc) was biotinylated; Fc
T4 sequence (Q9NYJ7 27-492 limits assumed): T2 sequence (Q9NYJ7 27-492 limits assumed)
Procedure: Binding kinetic assays were performed using Bio-layer interferometry (BLI) technology. The recombinant DLL3 ectodomain (rhDLL3-Fc) was biotinylated using EZ-Link Sulfo-NHS-LC-LC-Biotin Kit according to the manufacturer's protocol (Pierce by Thermo Fisher Scientific). The recombinant protein was incubated with an excess of NHS-LC-LC Biotin ester, in a molar ratio of 1:3 (protein: biotin), at 25° C. for 90 min. The un-reacted biotin ester was removed by subsequent buffer exchange on 0.5 ml Zeba spin desalting columns 7K MWCO (Pierce by Thermo Fisher Scientific).
The off-rate screening of the peptides was done using a Biacore T200 instrument (Cytiva, Sweden). […] Peptides were diluted at 300 nM in PBS-P+1× buffer (Cytiva, Sweden) supplemented with 1% DMSO and 0.1% BSA, then injected over the ligand for five minutes at 30 μl/min, finally dissociation allowed for 1 h. Sensorgrams were analyzed by Biacore T200 Evaluation Software 3.0 (Cytiva, Sweden): specific binding was obtained by subtracting unspecific binding to naked biosensors and a zero analyte concentration made of binding assay buffer (double referencing). Kinetic parameters of koff were measured using a global fitting according to 1:1 Langmuir binding isotherm equation.

IC50 [1]	binding mode to DLL3 ([2]; peptides at 20, 4 and 0.8 μM, fit to 1:1 Langmuir binding model)	affinity ([2]; wider dose-response 10×KD to 0.1×KD)	Kd [3]	koff [3]	kon [3]	efficiency in competing the binding of the AF647-labelled PepSP1146 [1]	RT [4]	Compound
76 nM	dose-response saturable binding	double-digit nM range	–	–	–	–	–	CC(C)[C@H](NC(=O)[C@@H](NC(=O)[C@H](CCC(=O)O)NC(=O)[C@H](C)N)[C@@H](C)O)C(=O)N[C@@H](CCC(=O)O)C(=O)N[C@@H](Cc1ccccc1)C(=O)N[C@@H](Cc1c[nH]c2ccccc12)C(=O)NCC(=O)N[C@H]1CSSC[C@@H](C(=O)N[C@@H](Cc2c[nH]c3ccccc23)C(=O)N[C@@H](Cc2c[nH]c3ccccc23)C(N)=O)NC(=O)[C@H]([C@@H](C)O)NC(=O)[C@H](CCC(=O)O)NC(=O)[C@H](CC(N)=O)NC(=O)CNC(=O)[C@H](Cc2c[nH]c3ccccc23)NC(=O)[C@H]([C@@H](C)O)NC(=O)CNC(=O)[C@H]([C@@H](C)O)NC1=O [PepSP1146]
15.3 nM	–	–	3 nM	0.00024 s⁻¹	74300 M⁻¹ s⁻¹	higher efficiency	–	CC(C)[C@H](NC(=O)[C@@H](NC(=O)[C@H](CCC(=O)O)NC(=O)[C@H](C)N)[C@@H](C)O)C(=O)N[C@@H](CCC(=O)O)C(=O)N[C@@H](Cc1ccccc1)C(=O)N[C@@H](Cc1c[nH]c2ccccc12)C(=O)NCC(=O)N[C@H]1CSSC[C@@H](C(=O)N[C@@H](Cc2c[nH]c3ccccc23)C(=O)N[C@@H](Cc2c[nH]c3ccccc23)C(=O)NCCCOCCOCCOCCCNC(=O)CCC(=O)N[C@@H](CCCCn2cc(COCCOCCOCCOCCOCCOCc3cn(CCCC[C@H](NC(=O)CCC(=O)NCCCOCCOCCOCCCNC(=O)[C@H](Cc4c[nH]c5ccccc45)NC(=O)[C@H](Cc4c[nH]c5ccccc45)NC(=O)[C@@H]4CSSC[C@H](NC(=O)CNC(=O)[C@H](Cc5c[nH]c6ccccc56)NC(=O)[C@H](Cc5ccccc5)NC(=O)[C@H](CCC(=O)O)NC(=O)[C@@H](NC(=O)[C@@H](NC(=O)[C@H](CCC(=O)O)NC(=O)[C@H](C)N)[C@@H](C)O)C(C)C)C(=O)N[C@@H]([C@@H](C)O)C(=O)NCC(=O)N[C@@H]([C@@H](C)O)C(=O)N[C@@H](Cc5c[nH]c6ccccc56)C(=O)NCC(=O)N[C@@H](CC(N)=O)C(=O)N[C@@H](CCC(=O)O)C(=O)N[C@@H]([C@@H](C)O)C(=O)N4)C(N)=O)nn3)nn2)C(N)=O)NC(=O)[C@H]([C@@H](C)O)NC(=O)[C@H](CCC(=O)O)NC(=O)[C@H](CC(N)=O)NC(=O)CNC(=O)[C@H](Cc2c[nH]c3ccccc23)NC(=O)[C@H]([C@@H](C)O)NC(=O)CNC(=O)[C@H]([C@@H](C)O)NC1=O [PepSP1270]
10 nM	–	–	3 nM	0.00028 s⁻¹	104000 M⁻¹ s⁻¹	higher efficiency	–	CC(C)[C@H](NC(=O)[C@@H](NC(=O)[C@H](CCC(=O)O)NC(=O)[C@H](C)N)[C@@H](C)O)C(=O)N[C@@H](CCC(=O)O)C(=O)N[C@@H](Cc1ccccc1)C(=O)N[C@@H](Cc1c[nH]c2ccccc12)C(=O)NCC(=O)N[C@H]1CSSC[C@@H](C(=O)N[C@@H](Cc2c[nH]c3ccccc23)C(=O)N[C@@H](Cc2c[nH]c3ccccc23)C(=O)NCCCOCCOCCOCCCNC(=O)CCC(=O)N[C@@H](CCCCn2cc(COCCOCCOCCOCCOCCOCCOCCOCCOCCOCCOCCOCCOCCOCc3cn(CCCC[C@H](NC(=O)CCC(=O)NCCCOCCOCCOCCCNC(=O)[C@H](Cc4c[nH]c5ccccc45)NC(=O)[C@H](Cc4c[nH]c5ccccc45)NC(=O)[C@@H]4CSSC[C@H](NC(=O)CNC(=O)[C@H](Cc5c[nH]c6ccccc56)NC(=O)[C@H](Cc5ccccc5)NC(=O)[C@H](CCC(=O)O)NC(=O)[C@@H](NC(=O)[C@@H](NC(=O)[C@H](CCC(=O)O)NC(=O)[C@H](C)N)[C@@H](C)O)C(C)C)C(=O)N[C@@H]([C@@H](C)O)C(=O)NCC(=O)N[C@@H]([C@@H](C)O)C(=O)N[C@@H](Cc5c[nH]c6ccccc56)C(=O)NCC(=O)N[C@@H](CC(N)=O)C(=O)N[C@@H](CCC(=O)O)C(=O)N[C@@H]([C@@H](C)O)C(=O)N4)C(N)=O)nn3)nn2)C(N)=O)NC(=O)[C@H]([C@@H](C)O)NC(=O)[C@H](CCC(=O)O)NC(=O)[C@H](CC(N)=O)NC(=O)CNC(=O)[C@H](Cc2c[nH]c3ccccc23)NC(=O)[C@H]([C@@H](C)O)NC(=O)CNC(=O)[C@H]([C@@H](C)O)NC1=O [PepSP1271]
–	–	–	–	5.5e-05 s⁻¹	90000 M⁻¹ s⁻¹	higher efficiency	–	CCOCCOCCOCCOCc1cn(CCCC[C@@H]2CC(=O)C(CC(=O)NCCCOCCOCCOCCCNC(=O)[C@@H](Cc3c[nH]c4ccccc34)NC(=O)[C@@H](CC3=CCc4ccccc43)NC(=O)[C@H]3CSSC[C@@H](NC(=O)CNC(=O)[C@@H](Cc4c[nH]c5ccccc45)NC(=O)[C@@H](Cc4ccccc4)NC(=O)[C@@H](CCC(=O)O)NC(=O)[C@H](NC(=O)[C@H](NC(=O)[C@@H](CCC(=O)O)NC(=O)C(C)C)[C@H](C)O)C(C)C)C(=O)N[C@H]([C@H](C)O)C(=O)NCC(=O)C(C)[C@H]([C@H](C)O)C(=O)N[C@H](Cc4c[nH]c5ccccc45)C(=O)NCC(=O)N[C@H](CC(N)=O)C(=O)N[C@H](CCC(=O)O)C(=O)N[C@H]([C@H](C)O)C(=O)N3)NC2=O)nn1 (stereo partly drawn) [PepSP1272] (Isobutyryl-[dE][dT][dV][dE][dF][dW]G[dC][dT][X4][dW]G[dN][dE][dT][dC][X5][dW]-X6; disulfide 8-16)
–	–	–	–	–	–	–	369	CC(=O)N[C@@H](C)C(=O)N[C@@H](CCC(=O)O)C(=O)N[C@H](C(=O)N[C@H](C(=O)N[C@@H](CCC(=O)O)C(=O)N[C@@H](Cc1ccccc1)C(=O)N[C@@H](Cc1c[nH]c2ccccc12)C(=O)NCC(=O)N[C@H]1CSSC[C@@H](C(=O)N[C@@H](Cc2c[nH]c3ccccc23)C(=O)N[C@@H](Cc2c[nH]c3ccccc23)C(=O)NCC(=O)NCC(=O)NCCCOCCOCCOCCCNC(=O)CCC(=O)N[C@@H](CCCCN)C(N)=O)NC(=O)[C@H]([C@@H](C)O)NC(=O)[C@H](CCC(=O)O)NC(=O)[C@H](CC(N)=O)NC(=O)CNC(=O)[C@H](Cc2c[nH]c3ccccc23)NC(=O)[C@H]([C@@H](C)O)NC(=O)CNC(=O)[C@H]([C@@H](C)O)NC1=O)C(C)C)[C@@H](C)O [PepSP1321] (Ac-AETVEFWGCTGTWGNETCWWGG-X11; disulfide 9-18)

Compound	IC50 [1]	binding mode to DLL3 ([2]; peptides at 20, 4 and 0.8 μM, fit to 1:1 Langmuir binding model)	affinity ([2]; wider dose-response 10×KD to 0.1×KD)	Kd [3]	koff [3]	kon [3]	efficiency in competing the binding of the AF647-labelled PepSP1146 [1]	RT [4]
AETVEFWSCVVYGDNWTCSS-CONH2 (AETVEFWSCVVYGDNWTCSS-NH2; disulfide 9-18 (inferred)) [PepSP1172]	–	–	–	–	–	–	most efficient binder	–
